The target of the test is T1, Cre-LBD[GR(I747/T)] (Homo sapiens, UniProt P04150, I747T).
T1 construct: the region containing the mutated LBD of HG1 [aa 500-777]; Cre recombinase aa 1-343 (bacteriophage P1); F region of the human estrogen receptor (aa 553-595); expressed in transfected cells
T1 sequence (P04150 500-777 I747T): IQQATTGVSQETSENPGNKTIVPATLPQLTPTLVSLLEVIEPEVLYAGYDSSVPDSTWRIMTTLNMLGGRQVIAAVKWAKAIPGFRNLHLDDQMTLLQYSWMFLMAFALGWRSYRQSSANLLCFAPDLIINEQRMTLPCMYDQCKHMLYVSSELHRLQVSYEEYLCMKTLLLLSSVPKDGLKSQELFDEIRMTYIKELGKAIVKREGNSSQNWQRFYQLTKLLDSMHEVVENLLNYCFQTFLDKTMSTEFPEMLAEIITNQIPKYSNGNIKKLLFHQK
Put plainly: PCR analysis of recombinase activity in RXRα+/−(LNL):Cre-GR(I747/T) line constitutively expressing the chimeric protein. The class given is cell-based. Conditions: for recombinase activity: ligand concentration ranging from 10^−9 to 10^−6 M; for recombinase activity (191 bp PCR fragment of recombinant allele): ligand 10^−6 M, 72 hours, expression cassette integrated into the genome. The procedure:
The resistant clones were obtained according to the procedure described by Metzger et al. (28).
The DNA amplifications were carried out using the “Polymerase Chain Reaction” (PCR) technique according to the protocol described by Chen and Evans (60). The primers used are: SB211 and PZ105, having respectively as nucleotide sequence 5′-[…]-3′ (SEQ ID NO: 10) and 5′-[…]-3′ (SEQ ID NO: 11). After denaturation for 8 min at 94° C., 2.5 units of Taq polymerase are added. The amplification is carried out by performing 35 cycles (30 sec. at 94° C., 30 sec. at 50° C.) followed by one cycle (30 sec. at 94° C., 30 sec. at 50° C., 5 min at 72° C.), the product of which is stored at 4° C.
The products of the reactions were separated on polyacrylamide (10%) or agarose (2.5%) gel. The DNA was visualized by UV followed by ethidium bromide staining, or by Southern blotting (42).
The amplified DNA was separated on acrylamide gel and stained with ethidium bromide. Lanes 1, 2, 3 and 4 contain respectively the PCR products produced with DNA extracted from wild-type (WT) F9 cells, RXRα^+/−(LNL), RXRα^+/−(L) cells and C2RXRα^+(L)/−(L) cells (73). Lane 8 contains a size marker (1 kb ladder; GibcoBRL).
The amplified DNA was separated on agarose gel and analyzed according to the Southern technique. The amplified fragments corresponding to the wild-type and recombinant alleles were detected by hybridization with the aid of the synthetic oligonucleotide (5′-[…]-3′) (SEQ ID NO: 12), radiolabeled at the 5′ end with T4 polynucleotide kinase. The signal was visualited and quantified with the aid of a “phosphoimager” (Fujix bas2000).
The recombinant allele was detected according to the procedure described in FIG. 8. The amplified DNA was separated on agarose gel and analyzed according to the Southern technique. The amplified fragments corresponding to the recombinant allele were detected by autoradiography following hybridization with the synthetic oligonucleotide 5′-[…]-3′ (SEQ ID NO: 13), (containing a loxP site) radiolabeled with Phosphorus^32 at the 5′ end by T4 polynucleotide kinase.
The recombinase activity was tested following a treatment of these cells with Dex (10^−6 M) for 72 hours.

As to `C[C@]12C[C@H](O)[C@H]3[C@@H](CCC4=CC(=O)CC[C@@]43C)[C@@H]1CC[C@@H]2C(=O)CO` [Corticosterone, corticosterone], the “recombinase activity” value was “No recombinase activity”.

On to `C[C@]12CCC(=O)C=C1CC[C@@H]1[C@@H]2[C@@H](O)C[C@]2(C=O)[C@@H](C(=O)CO)CC[C@@H]12` [Aldosterone, aldosterone], for which the “recombinase activity” value is “No recombinase activity”.

Turning to `C[C@]12CCC(=O)C=C1CC[C@@H]1[C@@H]2[C@@H](O)C[C@@]2(C)[C@H]1CC[C@]2(O)C(=O)CO` [Cortisol, cortisol], the “recombinase activity (191 bp PCR fragment of recombinant allele)” value is “inactive” and the “recombinase activity” value was “No recombinase activity”.

Consider `C[C@@H]1C[C@H]2[C@@H]3CCC4=CC(=O)C=C[C@]4(C)[C@@]3(F)[C@@H](O)C[C@]2(C)[C@@]1(O)C(=O)CO` [Dexamethasone, dexamethasone], for which the “recombinase activity (191 bp PCR fragment of recombinant allele)” value (listed as Dex) is “active”.

For the origin of these results see patent publication US6699686B1, “Modified nuclear glucocorticoid receptor, fusion protein, and DNA fragments coding for said receptor and said fusion protein” (Association pour le Development de la Recherche en …, priority 1996, dated 2004).
